The text below walks through data of publication PMC6193035, “Novel small molecules affecting cell membrane as potential therapeutics for avian pathogenic Escherichia coli” (Scientific Reports, 2018).

The subject of test [1] is APEC O78. Briefly: MIC and MBC determination in M63 media. The class given is cell-based, Escherichia coli. Particulars: Escherichia coli. The procedure:
One microlitre SM of each concentration was transferred to each well of a 96-well plate containing 100 µL of the 0.05 OD600 adjusted APEC O78 culture in M63 media. Growth was monitored in Sunrise - Absorbance microplate reader as described above. MIC was indicated by lowest concentration of SM with non-elevated OD600 measurement. MBC was determined by absence of APEC growth on LB agar plate following subculture. […] Two independent experiments were conducted.

Test [2] relates to APEC O8. Briefly: MIC and MBC determination in M63 media. Particulars: Escherichia coli. Type of test: cell-based.
Test [3] relates to APEC O18. Briefly: MIC and MBC determination in M63 media. Type of test: cell-based. Particulars: Escherichia coli.
For test [4], the system named is APEC O35. Briefly: MIC and MBC determination in M63 media. The class given is cell-based. Particulars: Escherichia coli.
Test [5] concerns APEC O2-211. Briefly: MIC and MBC determination in M63 media. Type of test: cell-based. To be noted: Escherichia coli; APEC O2-211, M63 media.
Test [6] relates to E. coli Nissle 1917 and E. coli G58-1. Briefly: Effect against beneficial microbes. Type of test: cell-based, Escherichia coli. To be noted: 100 µM. Here is the method: SMs were screened against different beneficial microbes to determine their specificity as described previously. SMs were added at 100 µM to 100 µL of 0.05 OD600 adjusted bacterial cultures in specific growth media in 96-well plate, and plate was incubated under indicated conditions. The specific growth media and conditions required for beneficial microbes limited the use of minimal media. Following incubation, endpoint OD600 was measured and cultures from the wells with non-elevated OD600 were plated on selective agar plates to determine the bactericidal effect.

In test [7] the test system is APEC O78. Briefly: Bacterial cytological profiling by confocal microscopy. The class given is cell-based, Escherichia coli. Particulars: 2X MBC, 2 h. Here is the method:
Confocal microscopy was used for bacterial cytological profiling (BCP) to identify the cellular pathways targeted by SMs as described previously. […] After incubation, treated cultures were centrifuged, washed, and resuspended in 100 µL PBS. FM4-64 (#T13320 Molecular Probes/Invitrogen) (1 µg/mL) and SYTO-9 (#S34854 Molecular Probes/Invitrogen) (5 µM) were added to the bacterial cultures and incubated for 45 mins at room temperature with shaking at 150 rpm. Cultures were then centrifuged, washed, and resuspended in PBS to 1/10th volume of the original cultures.

For test [8], the system named is APEC O78. Briefly: Crystal violet (CV) uptake assay. Type of test: cell-based, Escherichia coli. Particulars: 2X MBC, 30 mins; P < 0.05, Student's t-test. The procedure:
Membrane permeability assays (crystal violet (CV) uptake and loss of 260/280 nm absorbing materials) were conducted as described previously. […] CV uptake was measured using the formula: (OD DMSO − OD SM/OD DMSO × 100). Two independent experiments in duplicates were conducted.

Test [9] relates to intracellular APEC O1 in Caco-2 cells. Briefly: Intracellular survival assay. Type of test: cell-based, Escherichia coli. The method, boiled down: (§1)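 Mid-log APEC O78, O1 or O2 infected macrophages (HD11, THP-1) for 1 h and Caco-2 epithelial cells for 3 h at MOI 10 in serum- and antibiotic-free medium. Cells lysed with 0.1% Triton X-100 and viable intracellular bacteria counted on LB agar, compared with 1% DMSO wells; two experiments in duplicate.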

Test [10] has as its system intracellular APEC O78 in Caco-2 cells. Briefly: Intracellular survival assay. Type of test: cell-based, Escherichia coli. The method, boiled down: as §1
The subject of test [11] is E. coli BW25113. Details: method as in https://pubchem.ncbi.nlm.nih.gov/bioassay/710. Particulars: 100 µM; ref https://pubchem.ncbi.nlm.nih.gov/bioassay/710; cited from earlier work.

On to `CCN1/C(=C/c2ccc3ccccc3[n+]2CC)C=Cc2ccccc21` [SM9], for which the MIC in [1], in [2], in test [3], in test [4] and in test [5] was 25 µM in each case. The MBC in [1] (subculture on LB agar) stood at 50 µM; in test [2], 50 µM; in test [3] it was 100 µM; in test [4], 50 µM; in test [5], 25 µM. Also, the “effect on E. coli Nissle 1917 and E. coli G58-1” value in [6] was “did not have effect”. For the same compound, the “cytological profile (FM4-64 / SYTO-9 staining)” value in test [7] is “filamentous or short rods (spheroplasts) morphology (PG synthesis inhibitors)”. The “uptake of crystal violet compared with DMSO” value in [8] is reported as “increased the uptake of crystal violet”. For the same compound, the minimal effective concentration in test [9] (Escherichia coli, O1, Caco-2, 6 h treatment, read-out: SMs intracellular APEC clearance concentration) worked out at 100 µM; in test [10] (Escherichia coli, O78, Caco-2, 6 h treatment, read-out: SMs intracellular APEC clearance concentration) it was 50 µM. Further, the “intracellular APEC clearance concentration as multiple of MIC (superscript)” value in test [9] (O1, Caco-2) is on record as “c (4X MIC)”; in test [10] (O78, Caco-2), “b (2X MIC)”. For the same compound, the “concentration at which the SM significantly (P < 0.01) reduced intracellular APEC (superscript of t-statistic)” value in [9] (O1, Caco-2, 6 h) is “c (2XMIC)”; in test [10] (O78, Caco-2, 6 h), “b (1X MIC)”. The “growth inhibition of E. coli BW25113” value in test [11] was 57%.

As usually defined, the MIC is the lowest concentration that inhibits growth of the organism. High values mean weaker potency, low ones greater potency. For orientation: MBC means the smallest concentration meeting the test's criterion for killing.
